{"source": "patent US20160089391A1", "about": "“Molecular Targets for Cardiovascular Disease” (Temple University-of the Commonwealth System of Higher …, priority 2014, published 2016)", "key": {"mouse thoracic aorta": {"tested_on": "mouse thoracic aorta", "experiment": "Endothelium-dependent vascular relaxation to ACh in aortic rings treated ex vivo (multiple-wire myograph)", "conditions": "for aortic endothelium-dependent vascular relaxation to ACh: aortic rings of HHcy/HG-Cbs−/+ mice preincubated with calpain inhibitor 20 μmol/L for 1 hour; for aortic endothelium-dependent vascular relaxation to ACh / endothelium-dependent vascular relaxation to ACh: p<0.05; for endothelium-dependent vascular relaxation to ACh: aortic rings of HHcy/HG-Cbs−/+ mice preincubated 1 hr with antioxidant (PEG-SOD 150 U/mL, Tempol 1 mmol/L, apocynin 10 μmol/L)"}, "calpain [1]": {"tested_on": "calpain", "conditions": "mouse microvascular endothelial cells (Smolock et al., 2011); cited from earlier work"}, "aorta of db/db mice": {"tested_on": "aorta of db/db mice", "conditions": "supplementation, via the NO pathway (Seto et al., 2010); cited from earlier work"}, "eNOS-pThr495": {"tested_on": "eNOS-pThr495", "experiment": "eNOS-pThr495 protein levels in HAECs", "assay_type": "cell-based, human", "conditions": "HAECs with DL-Hcy 500 μmol/L and D-Glu 25 mmol/L 48 hrs; GFX 2 μmol/L 30 min; MDL 20 mmol/L 48 hrs; Adv-dnPKCβ2 200 MOI 72 hrs; siRNA 72 hrs", "method": "(FIG. 7A). eNOS protein levels in mouse aorta of Cbs^−/+ mice (Left Panel) and HAECs (Right Panel). (FIG. 7B). eNOS-pThr497/495 protein levels in mouse aorta of Cbs^−/+ mice (Left Panel) and in HAECs (Right Panel). At the age of 8-week, Cbs^−/+ mice were fed with a high methionine diet (HM, methionine: 2% w/w) for 8 weeks, and/or injected with streptozotocin (STZ, i.p., 40 mg/kg) for 5 consecutive days starting from the first day of experiment. Mice fed with a control diet (CT, methionine: 0.37% w/w) and injected with vehicle (50 mmol/L citrate buffer) served as controls. Human aortic endothelial cells (HAECs, passage 8-9) were cultured in EC medium which contains 5 mmol/L D-glucose (D-Glu), treated with DL-homocysteine (DL-Hcy, 500 μmol/L) and/or D-Glu (25 mmol/L). (FIG. 7C). eNOS-pThr495 protein levels in HAECs. HAECs (passage 8-9) were cultured in EC medium which contains 5 mmol/L D-glucose (D-Glu), treated with DL-homocysteine (DL-Hcy, 500 μmol/L) and D-Glu (25 mmol/L for 48 hrs with or without non-specific PKC inhibitor GF109203X (GFX) (2 μmol/L, 30 min.); control adenoviruse (Ad-CT, 200 MOI, 72 hrs), dominant negative PKCβ2 adenovirus (Adv-dnPKCβ2, 200 MOI, 72 hrs); μ-calpain siRNA (μ-calpsiRNA, Santa Cruz #sc-29885, 72 hrs), or MDL ([…], 48 hrs, Sigma #M6690). (FIG. 7D). Transfection effect of Adv-dnPKCβ2in HAECs. Cultured HAECs (passage 8, 80% confluence) were treated with 12.5, 25, 50, 100 and 200 MOI Adv-dnPKCβ2 for 48 hrs. n=3, *p<0.05 vs control; †p<0.05 vs DL-Hcy-treated HAECs; ‡p<0.05 vs D-Glu-treated HAECs; #p<0.05 vs DL-Hcy/D-Glu-treated HAECs. Cbs, cystathionine β-synthase; eNOS, endothelial nitric oxide synthase; eNOS-pThr495/497, phosphorylation of eNOS at threonine 497 (mouse)/495 (human).\nHuman aortic endothelial cells (HAECs) were cultured in cell culture medium (M199, HyClone) as previously described (Wang et al., 1997, J Biol Chem 272:25380-25385). The HAECs were treated with DL-Hcy (200 or 500 μmol/L) and/or D-glucose (D-Glu, 25 mmol/L) for 24 or 48 hrs in the presence or absence of selected pharmacological inhibitors or siRNA or adenovirus."}, "NO production in HAECs": {"tested_on": "NO production in HAECs", "experiment": "NO production in HAECs by DAF-FM staining", "assay_type": "cell-based, human", "conditions": "HAECs; L-NAME 100 μmol/L added in the last hour (negative control)", "method": "(§1) (FIG. 6A). Images of NO. Nitric oxide (NO) production in HAECs was measured by staining intact HAECs with NO marker DAF-FM. N^G-nitro-L-arginine methyl ester (L-NAME, 100 μmol/L, Sigma #N5751) was added in the last hour as a negative control. (FIG. 6B). Quantification of NO. (FIG. 6C). eNOS activity. Human aortic endothelial cells (HAECs) were cultured in EC medium which contains 5 mmol/L D-Glucose (D-Glu), and treated with DL-homocysteine (DL-Hcy, 500 μmol/L) and/or (D-Glu, 25 mmol) without or with MDL28170 (MDL) for 48 hrs, CTsiRNA or μ-calpsiRNA for 72 hrs. L-NAME (100 μmol/L) was added in the last hour. NO was measured by staining intact HAECs with NO marker (DAF-FM, 10 μmol/L, Sigma #D2321, 30 mins.). Endothelial nitric oxide synthase (eNOS) activity was assessed by measuring of ^3H-L-arginine conversion to ^3H-citrulline in intact HAECs. n=3, *p<0.05 vs control; †p<0.05 vs DL-Hcy-treated HAECs; ‡p<0.05 vs D-Glu-treated HAECs; #p<0.05 vs DL-Hcy/D-Glu-treated HAECs. DAF-FM, 4-Amino-5-methylamino-2′,7′-difluorescein; CTsiRNA, control siRNA; HG, hyperglycemia; HHcy, hyperhomocysteinemia; μ-calpsiRNA, μ-calpain siRNA.\n(§2) HAECs treated with or without DL-Hcy and/or D-Glu for 48 hrs were stained with 4-Amino-5-Methylamino-2′,7′-Difluorofluorescein (DAF-FM). To explore the role of calpain, especially μ-calpain, the DL-Hcy/D-Glu-treated HAECs were also treated with MDL28170 (MDL, 20 μmol/L) and μ-calpain siRNA, respectively. HAECs treated with L-NAME (100 μmol/L) for 1 hr before DAF-FM staining were used as negative controls. eNOS activity in HAECs was determined by measuring the conversion of ^3H-Arg to ^3H-citrulline in intact cells as previous described (Jiang et al., 2005, Arterioscl Throm Vas 25:2515-2521)."}, "eNOS": {"molecular_target": "T1, eNOS (Homo sapiens, UniProt P29474)", "T1 construct": "endogenous in cells; host or cells: HAECs (human aortic endothelial cells)", "T1 sequence (P29474 2-1203 limits assumed)": "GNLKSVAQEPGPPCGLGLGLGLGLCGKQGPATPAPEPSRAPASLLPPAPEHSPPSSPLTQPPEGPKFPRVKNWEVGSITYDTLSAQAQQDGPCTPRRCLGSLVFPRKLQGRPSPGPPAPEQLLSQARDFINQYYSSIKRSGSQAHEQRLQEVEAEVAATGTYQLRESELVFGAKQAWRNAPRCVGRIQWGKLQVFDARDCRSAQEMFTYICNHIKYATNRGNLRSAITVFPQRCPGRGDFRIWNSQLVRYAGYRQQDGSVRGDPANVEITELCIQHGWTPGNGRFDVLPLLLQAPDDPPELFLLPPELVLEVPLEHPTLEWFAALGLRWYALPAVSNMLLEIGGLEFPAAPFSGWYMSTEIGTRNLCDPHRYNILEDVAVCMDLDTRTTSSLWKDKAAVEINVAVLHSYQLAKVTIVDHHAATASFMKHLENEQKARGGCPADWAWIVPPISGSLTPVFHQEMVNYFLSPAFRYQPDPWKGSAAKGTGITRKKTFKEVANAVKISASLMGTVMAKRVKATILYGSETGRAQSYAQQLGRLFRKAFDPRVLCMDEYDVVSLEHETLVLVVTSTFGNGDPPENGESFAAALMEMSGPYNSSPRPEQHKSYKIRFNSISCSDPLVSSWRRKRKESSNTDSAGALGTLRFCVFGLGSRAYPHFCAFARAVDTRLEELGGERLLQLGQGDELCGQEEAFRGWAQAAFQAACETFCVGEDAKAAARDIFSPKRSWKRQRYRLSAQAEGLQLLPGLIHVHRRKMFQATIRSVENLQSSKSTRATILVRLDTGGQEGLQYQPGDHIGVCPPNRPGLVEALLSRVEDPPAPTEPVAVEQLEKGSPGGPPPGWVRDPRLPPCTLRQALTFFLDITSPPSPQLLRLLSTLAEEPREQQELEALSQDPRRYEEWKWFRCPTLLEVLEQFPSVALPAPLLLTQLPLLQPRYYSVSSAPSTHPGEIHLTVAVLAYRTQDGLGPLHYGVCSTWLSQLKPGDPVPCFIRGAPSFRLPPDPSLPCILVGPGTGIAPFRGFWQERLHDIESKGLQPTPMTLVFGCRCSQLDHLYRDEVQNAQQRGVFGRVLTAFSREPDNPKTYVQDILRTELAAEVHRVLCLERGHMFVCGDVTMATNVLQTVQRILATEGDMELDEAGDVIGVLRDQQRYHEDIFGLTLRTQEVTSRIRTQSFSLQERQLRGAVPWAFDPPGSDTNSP", "experiment": "eNOS activity in intact HAECs (3H-Arg to 3H-citrulline conversion)", "assay_type": "cell-based", "conditions": "HAECs; L-NAME 100 μmol/L added in the last hour", "method": "as §1, §2"}, "calpain [2]": {"tested_on": "calpain", "experiment": "t-BOC calpain activity assay in intact HAECs", "assay_type": "cell-based, human", "conditions": "HAECs treated with DL-Hcy 500 μmol/L and D-Glu 25 mmol/L; PEG-SOD 150 U/mL, 48 hrs", "method": "(FIG. 5A). In situ .O2^− production in aorta. (FIG. 5B). Nitrotyrosine (3-NT) levels. Aortic paraffin-cross sections (7 μm) from Cbs^−/+ mice were stained with 3-NT antibody and 3,3′-diaminobenzidine (DAB, brown). (FIG. 5C). Urinary 8-isoprostane levels. At the age of 8-week, Cbs^+/+ and Cbs^−/+ mice were fed with a high methionine diet (HM, methionine: 2% w/w) for 8 weeks, and/or injected with streptozotocin (STZ, i.p., 40 mg/kg) for 5 consecutive days starting from the first day of experiment. Mice fed with a control diet (CT, methionine: 0.37% w/w) and injected with vehicle (50 mM citrate buffer) served as controls. Aortic cryo-cross sections (30 μm) from Cbs^−/+ mice were stained with the superoxide marker dihydroethidium (DHE, 3 μmol/L, 30 mins.). Urine was collected from 24 hrs metabolic cage. (FIG. 5D). Endothelium-dependent vascular relaxation in HHcy/HG CBS^−/+ mouse aorta in the presence of antioxidants. Arterial rings were pre-contracted with phenylephrine (1 μmol/L) and examined for relaxation to cumulative additions of ACh in the aorta of STZ-treated Cbs^−/+ mice on HM diet. The arterial rings were preincubated with antioxidants polyethylene glycol superoxide dismutase (PEG-SOD, 150 U/mL, Sigma #S9549), Tempol (1 mmol/L, Sigma #176141), or apocynin (10 μmol/L, Sigma #W508454) for 1 hr. n=3-5. *p<0.05 vs vehicle-treated Cbs^−/+ mice on CT diet; †p<0.05 vs vehicle-treated Cbs^−/+ mice on HM diet; ‡p<0.05 vs STZ-treated Cbs^−/+ mice on CT diet; #p<0.05 vs STZ-treated Cbs^−/+ mice on HM diet. (FIG. 5E). […] Calpain activity was measured by the fluorescent substrate t-BOC-Leu-Met-CMAC (T-BOC, 10 μmol/L, 30 min) Human aortic endothelial cells (HAECs, passage 8-9) were cultured in EC medium which contains 5 mmol/L D-glucose (D-Glu), treated with DL-homocysteine (DL-Hcy, 500 μmol/L) and/or D-Glu (25 mmol/L) with or without […] (150 U/mL) or MDL28170 (MDL, 20 μmol/L) for 48 hrs, or CTsiRNA and μ-calpsiRNA for 72 hrs. […] Transfection effect of μ-calpsiRNA in HAECs was detected by Western blot after transfected with the siRNA for indicated time. […]"}}, "note": "Residues, ends and D or L forms follow the SMILES beside them."}
{"compound": "CSCC[C@@H](C=O)NC(=O)[C@H](CC(C)C)NC(=O)[C@H](CC(C)C)NC(C)=O", "note": "[ALLM, N-Acetyl-Leu-Leu-Met-CHO] (Ac-Leu-Leu-Met-aldehyde)", "values": [{"measurement": "aortic endothelium-dependent vascular relaxation to ACh", "setting": "mouse thoracic aorta", "value": "markedly improved"}]}
{"compound": "CN(C)CCCn1cc(C2=C(c3c[nH]c4ccccc34)C(=O)NC2=O)c2ccccc21", "note": "[BIM-1]", "values": [{"measurement": "calpain activity", "setting": "calpain [1]", "value": "decreased"}]}
{"compound": "Nc1nc2ncc(CNc3ccc(C(=O)N[C@@H](CCC(=O)O)C(=O)O)cc3)nc2c(=O)[nH]1", "note": "[Folic acid]", "values": [{"measurement": "endothelium-dependent vascular relaxation responses to ACh", "setting": "aorta of db/db mice", "value": "improved"}]}
{"compound": "CN(C)CCCn1cc(C2=C(c3c[nH]c4ccccc34)C(=O)NC2=O)c2ccccc21", "note": "[GFX, GF109203X]", "values": [{"measurement": "HHcy/HG-induced eNOS-pThr495", "setting": "eNOS-pThr495", "value": "completely rescued"}]}
{"compound": "COC(=O)[C@@H](N)CCCNC(=N)N[N+](=O)[O-]", "note": "[L-NAME, N^G-nitro-L-arginine methyl ester]", "values": [{"measurement": "NO generation", "setting": "NO production in HAECs", "value": 5.7, "unit": "%"}, {"measurement": "eNOS activity", "setting": "eNOS", "value": 10, "unit": "%"}, {"measurement": "vascular relaxation response to ACh", "setting": "mouse thoracic aorta; aorta of all groups (Cbs+/+ and Cbs−/+, HHcy and/or HG), L-NAME 100 μmol/L, 30 min", "value": "completely abolished"}]}
{"compound": "CC1(C)CC(O)CC(C)(C)N1[O]", "note": "[Tempol]", "values": [{"measurement": "endothelium-dependent vascular relaxation to ACh", "setting": "mouse thoracic aorta", "value": "significantly improved"}]}
{"compound": "COc1cc(C(C)=O)ccc1O", "note": "[apocynin]", "values": [{"measurement": "endothelium-dependent vascular relaxation to ACh", "setting": "mouse thoracic aorta", "value": "significantly improved"}]}
{"compound": "CCCC[C@@H](C=O)NC(=O)[C@H](CC(C)C)NC(=O)OCc1ccccc1", "note": "[calpeptin]", "values": [{"measurement": "aortic endothelium-dependent vascular relaxation to ACh", "setting": "mouse thoracic aorta", "value": "markedly improved"}]}
{"compound": "polyethylene glycol superoxide dismutase [PEG-SOD]", "values": [{"measurement": "decrease of HHcy/HG-induced calpain activation", "setting": "calpain [2]", "value": 49, "unit": "%"}, {"measurement": "endothelium-dependent vascular relaxation to ACh", "setting": "mouse thoracic aorta", "value": "significantly improved"}]}
